Experimental data as given in patent publication US7211402B2, “Transcription factor coactivator protein, p/CIP” (The Regents of the University of California, priority 1997, dated 2007).
Entries after “also recorded” stand apart in the source; their conditions may differ.

Tests used:
[1] = test system: RAR-dependent transcription; assay: Single cell microinjection assay, retinoic acid-dependent RARE/LacZ reporter; format: cell-based, rat; conditions: for effect on retinoic acid-dependent gene activation by RAR: microinjection into Rat-1 cells
Procedure: (§1) Insulin-responsive Rat-1 fibroblasts were seeded on acid washed glass coverslips at subconfluent density and grown in MNE/F12 medium supplemented with 10% fetal bovine serum, gentamicin and methotrexate. Prior to the injection, the cells were rendered quiescent by incubation in serum-free medium for 24–36 hr. Plasmids were injected into the nuclei of cells at a final concentration of […]. Peptides were injected at a concentration of 200 mM. Either preimmune IgG of the appropriate species or antibodies directed against p/CIP, NCoA-1 or NCoA-2 were co-injected and allowed the unambiguous identification of the injected cells.
(§2) Microinjections were carried out using an Eppendorf semiautomated microinjection system mounted on an inverted Zeiss microscope. Approximately 1 hr after injection, the cells were stimulated, where indicated, with the appropriate ligand. In the case of rescue experiments, the cells were stimulated with ligand 6 hr after injection, to allow protein expression. After overnight incubation, the cells were fixed, then stained to detect injected IgG and β-galactosidase expression (Rose et al., J. Cell. Biol. 119:1405–1411 (1992), which is incorporated herein by reference; Kamei et al., supra, 1996). Injected cells were identified by staining with tetramethylrhodamine-conjugated donkey anti-rabbit IgG.

[2] = test system: STAT-dependent (interferon γ-dependent) transcription; assay: Single cell microinjection assay, interferon γ-dependent GAS/LacZ reporter; format: cell-based, rat; conditions: for effect on interferon γ-dependent (STAT) gene activation: microinjection into Rat-1 cells, GAS/LacZ reporter
Procedure: as §1, §2

liganded RAR and NCoA-1 = biological target: T1, liganded RAR and NCoA-1 (Homo sapiens, UniProt P10276); assay: In vitro competition assay, GST-RAR interaction with in vitro translated NCoA-1; format: binding; conditions: excess peptide; 35S-labeled NCoA interaction domain fragment (aa 635–760); TTNPB 1 μM
T1 construct: GST-RAR (143–462), GST-ER(251–595) and GST-CBP(2058–2170) were generated as described; made in house; NCoA-1 was made by in vitro translation
T1 sequence (P10276 143-462): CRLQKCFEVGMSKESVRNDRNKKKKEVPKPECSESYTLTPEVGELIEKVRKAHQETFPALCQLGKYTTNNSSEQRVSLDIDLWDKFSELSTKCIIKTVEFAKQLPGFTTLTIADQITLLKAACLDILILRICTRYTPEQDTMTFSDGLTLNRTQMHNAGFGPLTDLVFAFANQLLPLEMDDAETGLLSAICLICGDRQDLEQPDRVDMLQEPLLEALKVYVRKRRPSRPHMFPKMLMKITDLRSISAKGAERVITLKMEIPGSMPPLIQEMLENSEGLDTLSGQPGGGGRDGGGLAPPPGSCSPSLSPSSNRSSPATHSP
Procedure: GST-RAR (143–462), GST-ER(251–595) and GST-CBP(2058–2170) were generated as described (Kamei et al., supra, 1996). 25 ul of GST SEPHAROSE beads containing 10 ug of the GST recombinant proteins were incubated in the presence or absence of the appropriate ligand for 30 min at room temperature, followed by the addition of 1 mg of cell extract and incubated for an additional 1 hr at 4° C. The complexes were then centrifuged, washed three times in NET-N buffer, separated by SDS-PAGE and western blotted with the appropriate antibodies (1 ug/ml). For co-immunoprecipitation assays, 1 mg of cell extract was incubated in the presence of 2 ug of p/CIP or NCoA antibody for 2 hr at 4° C. The immune complexes were precipitated with protein A SEPHAROSE (50% w/v). Protein complexes were separated by SDS-PAGE (Laemmle, Nature 227:680–685 (1970), which is incorporated herein by reference) and western blotted using 1 ug/ml of an anti-CBP/P300 monoclonal antibody (UBI). For in vitro competition assays, the indicated peptides were incubated with in vitro translated NCoA-1 prior to GST interaction with RAR.

[3] = biological target: T2, estrogen receptor ligand binding domain (yeast two-hybrid bait, liganded) (UniProt P03372 251-595); assay: yeast two-hybrid
T2 construct: Tested with estradiol (10^-6 M); also called liganded estrogen receptor (LBD); ER
T2 sequence (looked up): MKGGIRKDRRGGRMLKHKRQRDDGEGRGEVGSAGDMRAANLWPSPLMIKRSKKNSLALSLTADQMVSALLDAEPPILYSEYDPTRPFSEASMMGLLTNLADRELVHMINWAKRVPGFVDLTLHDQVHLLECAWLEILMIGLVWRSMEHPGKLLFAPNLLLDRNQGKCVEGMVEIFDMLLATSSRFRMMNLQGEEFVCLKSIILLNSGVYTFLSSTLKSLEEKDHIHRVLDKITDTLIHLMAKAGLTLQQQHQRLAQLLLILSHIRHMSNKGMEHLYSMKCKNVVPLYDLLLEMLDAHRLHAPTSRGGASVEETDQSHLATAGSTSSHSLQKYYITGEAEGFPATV
Source text: EGY 48 cells were transformed with the lac Z reporter plasmid pSH 18–34 with the appropriate bait and prey vectors and plated out on -Ura-His-Trp medium containing 2% galactose.

[4] = test system: SP-1 or CMV dependent transcription; assay: Single cell microinjection assay, control promoters lacking nuclear receptor response elements; format: cell-based; conditions: microinjection into Rat-1 cells
Procedure: as §1, §2

[5] = test system: TPA-dependent transcriptional activation; assay: Single cell microinjection assay, TPA-dependent reporter; format: cell-based; conditions: microinjection into Rat-1 cells
Procedure: as §1, §2

[6] = simultaneous retinoic acid and interferon γ

## CBP N′-P1: synthetic peptide of the N-terminal 22 amino acids of CBP; CBP N′-P1 (aa 1–19) (MAENLLDGPPNPKRAKLSS)
[1]
  effect on retinoic acid-dependent gene activation by RAR: without effect
[1]; [6]
  effect on interferon γ inhibition of RAR-dependent transcription: relieved inhibition; also recorded: fully abolished
[2]
  effect on interferon γ-dependent (STAT) gene activation: markedly inhibited
[2]; [6]
  effect on retinoic acid dependent inhibition of the GAS/LacZ reporter: had no effect

## LCD4: 19-mer peptide corresponding to NCoA-1 LCD4 (aa 907–926)
[1]
  effect on retinoic acid-dependent gene activation by RAR: can block
[1]; listed as NCoA-1 LCD4
  effect on retinoic acid-dependent gene activation by RAR: inhibits
[2]
  effect on interferon γ-dependent (STAT) gene activation: does not impair

## LCD 1: peptide corresponding to LCD 1 of NCoA-1; NCoA-1 LCD1 (aa 631–647) (SQTSHKLVQLLTTTAEQ; UniProt P70365 631-647, looked up, fragment)
Liganded RAR and NCoA-1
  inhibition of interaction between liganded RAR and NCoA-1 in vitro: less effective

B1: NCoA-1 (aa 635-760) with LCD2 mutation (amino acids 695 to 698, HRLL->AAAA), yeast two-hybrid prey (other, UniProt P70365 635-760, looked up)
chain: HKLVQLLTTTAEQQLRHADIDTSCKDVLSCTGTSSSASSNPSGGTCPSSHSSLTERHKILAAAAQEGSPSDITTLSVEPEKKDSVPASTAVSVSGQSQGSASIKLELDAAKKKESKDHQLLRYLLD
notes: also called Mutations of the LCD2 motif (RLHRLL->RLAAAA); not shown: B42 fusion partner of prey vector pJG 4-5
[3]
  binding result: no binding

B2: p/CIP (aa 947–1084): 137 amino acid region of p/CIP (aa 947–1084) containing the core CBP interaction domain (protein, UniProt O09000 947-1084, looked up, fragment)
chain: VPTLPLRSNRLPGARPSLQQQQQQQQQQQQQQQQQQQQQQQMLQMRTGEIPMGMGVNPYSPAVQSNQPGSWPEGMLSMEQGPHGSQNRPLLRNSLDDLLGPPSNAEGQSDERALLDQLHTFLSNTDATGLEEIDRALG
[1]
  effect on retinoic acid-dependent gene activation by RAR: completely inhibited
[1]; listed as amino acids 947 to 1084 of p/CIP
  effect on retinoic acid-dependent gene activation by RAR: inhibits
[2]
  effect on interferon γ-dependent (STAT) gene activation: blocked
[4]
  effect on SP-1 / CMV control promoters (non-CBP-dependent): did not block
[5]
  effect on TPA-dependent transcriptional activation: blocked
